Measurements published in US11845760B2, “PRMT5 inhibitors” (AMGEN INC., priority 2020, dated 2023).
pIC50: −log10 of the molar value. Read-outs that look alike come from different tables or passages of the source.

What was measured:
HCT116 MTAP null cells = assay: HCT116 MTAP null cell line proliferation (CellTiter-Glo cell viability, 6 days); format: cell-based; details: HCT116 MTAP null cells, 6 days of treatment, CellTiter-Glo cell viability, read-out: HCT-116 MTAP null IC50
How it was run: (§1)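 Isogenic HCT116 pair (both MTAP alleles knocked out vs parent) in RPMI 1640 + 10% FBS, seeded overnight at 37° C, 5% CO2, then exposed 6 days to 8- or 9-point 1:3 dilutions from 1 or 10 μM. CellTiter-Glo luminescence; IC50 from sigmoidal fit, Hill slope fixed −1, top 100%, or 4-parameter logistic.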

HCT116 WT cells = assay: HCT116 WT cell line proliferation (CellTiter-Glo cell viability, 6 days); format: cell-based; details: HCT116 WT (parent) cells, 6 days of treatment, CellTiter-Glo cell viability, read-out: HCT-116 WT IC50
How it was run: as §1

pIC50 (HCT116 MTAP null cells; HCT116-MTAP null, 144 h)	pIC50 (HCT116 WT cells; Homo sapiens, HCT-116, 144 h)	pIC50 (HCT116 MTAP null cells)	pIC50 (HCT116 WT cells)	Compound
7.09	5.56	–	–	C[C@H]1COC[C@@H](c2ccc(OC(F)F)nc2)N1C(=O)c1cc2c3c(c(N)nc2cn1)COC3 (racemic) [Example 318, (4-amino-1,3-dihydrofuro[3,4-c][1,7]naphthyridin-8-yl)((3R,5S)-3-(6-(difluoromethoxy)-3-pyridinyl)-5-methyl-4-morpholinyl)methanone and (4-amino-1,3-dihydrofuro[3,4-c][1,7]naphthyridin-8-yl)((3S,5R)-3-(6-(difluoromethoxy)-3-pyridinyl)-5-methyl-4-morpholinyl)methanone]
6.17	4.76	–	–	C[C@H]1OCc2c1c(N)nc1ccc(C(=O)N3C[C@H](c4ccccc4)[C@H]4CCC[C@@H]43)cc21 [Example 401, ((3R)-4-amino-3-methyl-1,3-dihydrofuro[3,4-c]quinolin-8-yl)((3S,3aR,6aS)-3-phenylhexahydrocyclopenta[b]pyrrol-1(2H)-yl)methanone]
–	–	6.46	5.24	(4-amino-7-chloro-1,3- dihydrofuro[3,4-c]quinolin-8- yl)((3R,4S)-3-ethyl-4-(4- methylphenyl)-1- pyrrolidinyl)methanone and (4-amino-7-chloro-1,3- dihydrofuro[3,4-c]quinolin-8- yl)((3S,4R)-3-ethyl-4-(4- methylphenyl)-1- pyrrolidinyl)methanone [Example 424]
6.20	5.37	–	–	Cn1ncc2c(N)nc3cc(F)c(C(=O)N4C[C@@H]5C[C@]5(c5ccc(C(F)(F)F)cc5)C4)cc3c21 (single isomer, unassigned) [Example 620]
6.83	5.36	–	–	Cn1ncc2c(N)nc3ccc(C(=O)N4CC[C@H](c5ccc(C(F)(F)F)cc5)C4)cc3c21 [Example 425, (4-amino-1-methyl-1H-pyrazolo[4,3-c]quinolin-8-yl)((3R)-3-(4-(trifluoromethyl)phenyl)-1-pyrrolidinyl)methanone]
< 6.00	5.27	–	–	Nc1nc2ccc(C(=O)N3CCCC[C@H]3c3ccc(C(F)(F)F)cc3)cc2c2ccsc12 (single isomer, unassigned) [Example 489]
6.12	6.17	–	–	Nc1nc2ccc(C(=O)N3CCOC[C@@H]3c3ccc(C(F)(F)F)cc3)cc2n2ccnc12 [Example 403, (4-aminoimidazo[1,2-a]quinoxalin-8-yl)((3S)-3-(4-(trifluoromethyl)phenyl)-4-morpholinyl)methanone]
6.97	5.36	–	–	COc1ccc([C@H]2COC[C@@H](C)N2C(=O)c2cc3c4c(c(N)nc3cn2)COC4)nn1 (relative stereo) [Example 491, (4-amino-1,3-dihydrofuro[3,4-c][1,7]naphthyridin-8-yl)((3S,5R)-3-(6-methoxypyridazin-3-yl)-5-methylmorpholino)methanone]
7.24	5.85	–	–	Nc1nc2cc(Cl)c(C(=O)N3CCOCC3c3ccc(C(F)(F)F)cn3)cc2c2c1COC2 (racemic) [Example 344, (4-amino-7-chloro-1,3-dihydrofuro[3,4-c]quinolin-8-yl)((3R)-3-(5-(trifluoromethyl)-2-pyridinyl)-4-morpholinyl)methanone and (4-amino-7-chloro-1,3-dihydrofuro[3,4-c]quinolin-8-yl)((3S)-3-(5-(trifluoromethyl)-2-pyridinyl)-4-morpholinyl)methanone]
7.51	5.71	–	–	CC1(C)CN(C(=O)c2cc3c4c(c(N)nc3cc2F)COC4)C[C@H]1c1ccc(Br)cc1 (single isomer, unassigned) [Example 478]
7.54	5.76	–	–	Cn1ncc2c(N)nc3cc(F)c(C(=O)N4CC[C@H](c5ccc(C(F)(F)F)cc5)C4)cc3c21 [Example 436, (4-amino-7-fluoro-1-methyl-1H-pyrazolo[4,3-c]quinolin-8-yl)((3R)-3-(4-(trifluoromethyl)phenyl)-1-pyrrolidinyl)methanone]
7.18	5.49	–	–	C[C@H]1OCc2c1c(N)nc1cnc(C(=O)N3[C@@H](C)COC[C@H]3c3ccc(Cl)nc3)cc21 (racemic) [Example 310, ((3R)-4-amino-3-methyl-1,3-dihydrofuro[3,4-c][1,7]naphthyridin-8-yl)((3R,5S)-3-(6-chloro-3-pyridinyl)-5-methyl-4-morpholinyl)methanone and ((3R)-4-amino-3-methyl-1,3-dihydrofuro[3,4-c][1,7]naphthyridin-8-yl)((3S,5R)-3-(6-chloro-3-pyridinyl)-5-methyl-4-morpholinyl)methanone]
–	–	7.64	5.77	Nc1nc2cc(Cl)c(C(=O)N3CCOCC3c3ccc(OC(F)F)nc3)cc2c2c1COC2 (racemic) [Example 384, (4-amino-7-chloro-1,3-dihydrofuro[3,4-c]quinolin-8-yl)((3R)-3-(6-(difluoromethoxy)-3-pyridinyl)-4-morpholinyl)methanone and (4-amino-7-chloro-1,3-dihydrofuro[3,4-c]quinolin-8-yl)((3S)-3-(6-(difluoromethoxy)-3-pyridinyl)-4-morpholinyl)methanone]
7.72	6.19	–	–	C[C@@H]1COC[C@H](c2ccc(OC(F)(F)F)cc2)N1C(=O)c1ccc2nc(N)c3c(c2c1)CO[C@@H]3C [Example 536, ((3R)-4-amino-3-methyl-1,3-dihydrofuro[3,4-c]quinolin-8-yl)((3R,5S)-3-methyl-5-(4-(trifluoromethoxy)phenyl)-4-morpholinyl)methanone]
7.04	5.57	–	–	Nc1nc2ccc(C(=O)N3CCOC[C@@H]3c3ccc(OC(F)(F)F)cc3)cc2c2c1COC2 [Example 335, (4-amino-1,3-dihydrofuro[3,4-c]quinolin-8-yl)-[(3S)-3-[4-(trifluoromethoxy)phenyl]morpholin-4-yl]methanone]
< 6.00	< 5.00	–	–	C[C@H]1COC[C@@H](c2ccc(OC(F)(F)F)cc2)N1C(=O)c1ccc2nc(N)c3c(c2c1)COC3 (single isomer, unassigned) [Example 587]
7.77	6.21	–	–	CC1COC[C@H](c2ccc(C(F)(F)F)cn2)N1C(=O)c1ccc2nc(N)c3c(c2c1)COC3 (single isomer, unassigned) [Example 583]
7.40	5.44	–	–	Cn1ncc2c(N)nc3cc(Cl)c(C(=O)N4CC(c5ccc(C(F)(F)F)cn5)C4)cc3c21 [Example 442, (4-amino-7-chloro-1-methyl-1H-pyrazolo[4,3-c]quinolin-8-yl)(3-(5-(trifluoromethyl)-2-pyridinyl)-1-azetidinyl)methanone]
6.62	< 5.00	–	–	Nc1nc2ccc(C(=O)N3CCOC[C@@H]3c3ccc(Br)cn3)cc2c2c1COC2 (single isomer, unassigned) [Example 573]
7.54	5.78	–	–	Cn1ncc2c(N)nc3ccc(C(=O)N4CCOC[C@@H]4c4ccc(C(F)(F)C(F)(F)F)cc4)cc3c21 [Example 409, (4-amino-1-methyl-1H-pyrazolo[4,3-c]quinolin-8-yl)((3S)-3-(4-(pentafluoroethyl)phenyl)-4-morpholinyl)methanone]
6.79	4.81	–	–	Cn1ncc2c(N)nc3cnc(C(=O)N4CCOC[C@@H]4c4ccc(OC(F)F)nn4)cc3c21 [Example 451, (4-amino-1-methyl-1H-pyrazolo[4,3-c][1,7]naphthyridin-8-yl)((3S)-3-(6-(difluoromethoxy)-3-pyridazinyl)-4-morpholinyl)methanone]
6.08	4.48	–	–	N#Cc1ccc(C2COCCN2C(=O)c2cc3c4c(c(N)nc3cn2)COC4)cc1 (racemic) [Example 388, 4-((3R)-4-((4-amino-1,3-dihydrofuro[3,4-c][1,7]naphthyridin-8-yl)carbonyl)-3-morpholinyl)benzonitrile and 4-((3S)-4-((4-amino-1,3-dihydrofuro[3,4-c][1,7]naphthyridin-8-yl)carbonyl)-3-morpholinyl)benzonitrile]
6.06	4.82	–	–	C[C@H]1OCc2c1c(N)nc1ccc(C(=O)N3CC[C@](F)(c4ccc(C(F)(F)F)cc4)C3)cc21 [Example 438, ((3R)-4-amino-3-methyl-1,3-dihydrofuro[3,4-c]quinolin-8-yl)((3S)-3-fluoro-3-(4-(trifluoromethyl)phenyl)-1-pyrrolidinyl)methanone]
8.22	6.89	–	–	Cn1ncc2c(N)nc3cnc(C(=O)N4CCOC[C@@H]4c4ccc(S(F)(F)(F)(F)F)cc4)cc3c21 [Example 448, (4-amino-1-methyl-1H-pyrazolo [4,3-c][1,7]naphthyridin-8-yl)((3S)-3-(4-(pentafluoro-lambda~6~-sulfanyl)phenyl)-4-morpholinyl)methanone]
7.38	5.54	–	–	Cn1ncc2c(N)nc3cc(F)c(C(=O)N4CCOC[C@@H]4c4ccc(C(F)(F)F)nn4)cc3c21 [Example 560, (4-amino-7-fluoro-1-methyl-1H-pyrazolo[4,3-c]quinolin-8-yl)((3S)-3-(6-(trifluoromethyl)-3-pyridazinyl)-4-morpholinyl)methanone]
7.00	5.30	–	–	C[C@H]1OCc2c1c(N)nc1cnc(C(=O)N3CCOC[C@@H]3c3ccc(C(F)(F)F)cc3)cc21 (racemic) [Example 338, ((3R)-4-amino-3-methyl-1,3-dihydrofuro[3,4-c][1,7]naphthyridin-8-yl)((3S)-3-(4-(trifluoromethyl)phenyl)-4-morpholinyl)methanone and ((3S)-((4-amino-3-methyl-1,3-dihydrofuro[3,4-c][1,7]naphthyridin-8-yl)((3S)-3-(4-(trifluoromethyl)phenyl)-4-morpholinyl)methanone]
